Our source for the IC50 and IC90 values is PubChem BioAssay AID434987 (Southern Research Specialized Biocontainment Screening …, 2010).

Calls of active or inactive are those of the source. No rule for the calls is given here.

One may read the IC50 as the concentration needed to halve the response being measured. One may read the IC90 as the concentration at which the effect reaches the 90% level.

The assay deals with M. tuberculosis H37Rv growth inhibition with meropenem. Put plainly: dose response, H37Rv, with and without meropenem (AID 434987).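 Also: growth over 7 days at 37 °C before Alamar Blue read on day 9.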
[1] abbreviates: M. tuberculosis H37Rv growth inhibition, measured here: IC50 without meropenem.
Setting [2] is: M. tuberculosis H37Rv growth inhibition, measured here: IC90 without meropenem.
[3] abbreviates: measured here: IC90 with meropenem.

Consider `C/C(=N\NC(=O)c1ccccc1O)c1ccc(Br)s1`, for which the IC50 is > 100 µM (inactive). The compound further had a concentration for half-maximal inhibition (IC50) under setting [1] above 100 µM. Besides, the 90% effect concentration (IC90) under setting [2] was above 100 µM. The IC90 under setting [3] is above 100 µM.
With `Cc1cc(C=C2C(=O)NC(=S)NC2=O)c(C)n1-c1ccc2c(c1)OCO2`, the IC50 is 12.7 µM (inactive). This compound also showed an IC50 under setting [1] of 24.3 µM. Under setting [2], this compound had a 90% effect concentration (IC90) of 25.3 µM. Also, under setting [3], the concentration for an effect of 90% (IC90) amounted to 14.5 µM.
The corresponding values for `CC12CCC(C/C1=N/NC(=O)Nc1ccccc1)C2(C)C` (stereo not given) are 14.9 µM, above 100 µM, above 100 µM and above 50 µM.
For `O=C1N/C(=N\N=C\c2ccc3ncccc3c2)SC1Cc1ccc(SC(F)F)cc1` (stereo not given), in that order: > 100 µM (inactive), above 100 µM, above 100 µM and above 100 µM.
Turning to `Cc1nc(SCC(=O)Nc2ccc(F)cc2)c(C#N)c(C)c1CC(=O)c1ccc(Br)cc1`, the IC50 was > 100 µM (inactive). Under setting [1], this compound returned an IC50 above 100 µM. Under setting [2], this compound displayed an IC90 above 100 µM. This compound came in with a 90% effect concentration (IC90) under setting [3] above 100 µM.
Regarding `CC(C)=CCC/C(C)=C/C=N/NC(=O)c1ccc([N+](=O)[O-])cc1`, the IC50 is 1.02 µM. Also, the IC50 under setting [1] came out at 49 µM. Further, the 90% effect concentration (IC90) under setting [2] is above 100 µM. Under setting [3], this compound registered an IC90 above 100 µM.
`CCCCCn1c(=O)c(C(=O)Nc2cnccn2)c(O)c2ccccc21`: the IC50 is 10.8 µM (inactive). The compound also yielded an IC50 under setting [1] of 13.7 µM. Further, the IC90 under setting [2] worked out at 16.4 µM. This compound returned an IC90 under setting [3] of 13.8 µM.
The corresponding values for `Clc1ccc(Cn2cc(/C=N/n3cnnc3)c3ccccc32)cc1` are 46.9 µM (inactive), 49 µM, above 50 µM and above 100 µM.
For `O=C(Nc1ccc(OC(=O)c2ccccc2)c(-c2nc3ccccc3s2)c1)c1ccccc1`, in that order: > 100 µM (inactive), above 100 µM, above 100 µM and above 100 µM.
For `Nc1c2c(nc3sc4c(c13)CCCC4)-c1ccccc1CC2`, in that order: 6.11 µM, above 100 µM, above 100 µM and above 100 µM.
`Cc1ccccc1C(=O)NC(=S)Nc1sc2c(c1C#N)CCC(C)C2` (stereo not given): the IC50 is > 100 µM (inactive). In addition, the half-inhibitory concentration (IC50) under setting [1] was above 100 µM. Under setting [2], this compound gave a concentration for an effect of 90% (IC90) above 100 µM. The compound further returned a 90% effect concentration (IC90) under setting [3] above 100 µM.
For the compound `Cc1cc(=O)[nH]c(N/N=C/c2c(O)n(-c3ccccc3)c(=O)c3ccccc23)n1`, the IC50 was 1.87 µM. Also, the IC50 under setting [1] was found to be 7.61 µM. The same compound yielded an IC90 under setting [2] above 100 µM. This compound displayed an IC90 under setting [3] of 13.6 µM.
For `COC(=O)c1cc(OC)c(OC)cc1NC(=S)N1CCN(C)CC1`, in that order: > 100 µM (inactive), above 100 µM, above 100 µM and above 100 µM.
For `Cc1cccc(CSc2nnc(C)c(=O)n2N)c1`, in that order: 5.94 µM (inactive), 12.4 µM, 20.9 µM and 9.9 µM.
For `CCN(CC)c1ccc(C(=O)n2cnc3ccccc32)cc1`, in that order: 70.3 µM (inactive), 91.6 µM, above 100 µM and above 100 µM.
Consider `COc1cccc(NC(=O)c2cc(-c3cccnc3)nc3c(Cl)cccc23)c1`, for which the IC50 is > 100 µM (inactive). This compound registered a 50% inhibitory concentration (IC50) under setting [1] above 100 µM. Under setting [2], this compound had an IC90 above 100 µM. The same compound registered an IC90 under setting [3] above 100 µM.
In the case of `O=c1c2cc(Cl)ccc2[nH]c(=S)n1Cc1cccs1`, the IC50 is 5.72 µM. Further, the half-maximal inhibitory concentration (IC50) under setting [1] was 20.4 µM. The compound further returned a concentration for an effect of 90% (IC90) under setting [2] above 50 µM. This compound also gave an IC90 under setting [3] of 13.2 µM.
The corresponding values for `CC(C)(C)C1CCC(OCC(O)CN2CCN(c3ccccn3)CC2)CC1` (stereo not given) are 100 µM (inactive), above 100 µM, above 100 µM and above 100 µM.
Regarding `COc1ccccc1CNC(=O)COC(=O)C1=COCCO1`, the IC50 was 18.5 µM. The compound also returned a half-inhibitory concentration (IC50) under setting [1] of 67.9 µM. The same compound returned a concentration for an effect of 90% (IC90) under setting [2] above 100 µM. This compound also showed a 90% effect concentration (IC90) under setting [3] above 100 µM.
For `CCCCN(CCCC)C(=S)N/N=C/c1c(C)[nH]n(-c2ccccc2)c1=O`, the IC50 was > 100 µM (inactive). Under setting [1], this compound had an IC50 above 100 µM. Further, the 90% effect concentration (IC90) under setting [2] is above 100 µM. This compound also had an IC90 under setting [3] above 100 µM.
As for `COC(=O)c1c(-c2ccc(OC)cc2)oc2ccc(-c3cc(OC)c(OC)c(OC)c3)cc12`, the IC50 was 7.72 µM. In addition, under setting [1], the IC50 was above 100 µM. Under setting [2], this compound returned an IC90 above 100 µM. Also, the IC90 under setting [3] is above 100 µM.
Regarding `COc1ccc(-c2csc(NC(C)c3nc4cc(Cl)c(Cl)cc4n3CCCO)n2)cc1` (stereo not given), the IC50 is 97.3 µM (inactive). Under setting [1], this compound displayed a 50% inhibitory concentration (IC50) above 100 µM. The compound further had a 90% effect concentration (IC90) under setting [2] above 100 µM. The same compound yielded an IC90 under setting [3] above 100 µM.
With `O=C(Cn1c(=O)c2cccn2c2ccccc21)NCCc1ccc(Cl)cc1`, the IC50 was > 100 µM (inactive). For the same compound, the IC50 under setting [1] is above 100 µM. Besides, the concentration for an effect of 90% (IC90) under setting [2] was above 100 µM. Under setting [3], this compound displayed an IC90 above 100 µM.
On to `COC(=O)c1cc(C)[nH]c2c(C)cc3nc4ccccc4c3c12`, for which the IC50 was > 100 µM (inactive). This compound also displayed an IC50 under setting [1] above 100 µM. Further, the IC90 under setting [2] is above 100 µM. In addition, the IC90 under setting [3] was above 100 µM.
Take `O=C(N[C@@H](Cc1ccccc1)C(=O)CCl)OCc1ccccc1`: the IC50 is 8.88 µM (inactive). Further, the IC50 under setting [1] is 17.3 µM. Moreover, the IC90 under setting [2] turned out to be 41.9 µM. Besides, under setting [3], the IC90 stood at 46.9 µM.
As for `COc1ccccc1NC(=O)COc1ccc(CO)cc1Cl`, the IC50 is > 100 µM (inactive). Under setting [1], this compound returned a half-inhibitory concentration (IC50) above 100 µM. The IC90 under setting [2] is above 100 µM. For the same compound, the IC90 under setting [3] was above 100 µM.
With `O=C(NN=C(Cc1ccccc1)Cc1ccccc1)c1ccccc1F`, the half-maximal inhibitory concentration (IC50) was 1.64 µM. Under setting [1], the half-inhibitory concentration (IC50) was above 100 µM. In addition, the IC90 under setting [2] is above 100 µM. Besides, the IC90 under setting [3] is above 50 µM.
For the compound `COc1cc(OC)cc(-c2nnc(NC(=O)CCS(=O)(=O)c3ccc(C)cc3)o2)c1`, the half-inhibitory concentration (IC50) is 32.2 µM. This compound had an IC50 under setting [1] above 100 µM. The concentration for an effect of 90% (IC90) under setting [2] was above 100 µM. Under setting [3], this compound showed a 90% effect concentration (IC90) above 100 µM.
`C/C(CC(=O)Nc1c(C)cc(C)cc1C)=N\NC(=O)c1cnccn1`: the 50% inhibitory concentration (IC50) was 5.21 µM. Besides, the IC50 under setting [1] was 28.7 µM. Under setting [2], this compound registered a 90% effect concentration (IC90) of 58.5 µM. Further, under setting [3], the IC90 is 17.4 µM.
For `COc1ccc(C(=O)NC(=S)NC(C)(C)C)cc1Br`, in that order: > 100 µM (inactive), above 100 µM, above 100 µM and above 100 µM.
For `CCOC(=O)C1CCN(c2ccc(C(N)=O)cc2[N+](=O)[O-])CC1`, in that order: 16.3 µM, 55.2 µM, above 100 µM and above 100 µM.
For `O=C(CCSc1ccc(Cl)c(Cl)c1)NC12CC3CC(CC(C3)C1)C2`, in that order: 11.6 µM, 66.3 µM, above 100 µM and 12.3 µM.
On to `CC(=O)c1ccc(-n2c(C)ccc2-c2ccccc2)cc1`, for which the 50% inhibitory concentration (IC50) was 20.2 µM. This compound also came in with a concentration for half-maximal inhibition (IC50) under setting [1] of 61.3 µM. In addition, under setting [2], the concentration for an effect of 90% (IC90) worked out at 88.3 µM. In addition, under setting [3], the IC90 is above 100 µM.
For `COc1ccc(OC)c(NC(=O)CSC2=C(C#N)C(c3ccco3)C3=C(CCCC3=O)N2)c1` (stereo not given), in that order: 70.4 µM (inactive), 94.2 µM, above 100 µM and above 100 µM.
The corresponding values for `COC(=O)CN1C(CN2CCOCC2)=Nc2ccc(Br)cc2C1c1ccccc1` (stereo not given) are > 100 µM (inactive), above 100 µM, above 100 µM and above 100 µM.
The corresponding values for `O=C(Oc1c(-c2ccccc2)c(=O)n2c3c(cccc13)CC2)c1ccc(F)cc1` are 6.19 µM, 54.2 µM, above 100 µM and 34 µM.
Consider `Cc1ccc(C(=O)NN2C(=O)/C(=C/c3cccn3C)SC2=S)cc1`, for which the IC50 is > 100 µM (inactive). Under setting [1], this compound registered an IC50 above 100 µM. For the same compound, the IC90 under setting [2] was above 100 µM. Under setting [3], this compound returned a concentration for an effect of 90% (IC90) above 100 µM.
Take `c1ccc(-c2noc(-c3cccc4ccccc34)n2)cc1`: the concentration for half-maximal inhibition (IC50) is 20.2 µM. The compound further had a 50% inhibitory concentration (IC50) under setting [1] above 100 µM. This compound registered an IC90 under setting [2] above 100 µM. For the same compound, the 90% effect concentration (IC90) under setting [3] is above 100 µM.
For `CCOC(=O)c1c(C)[nH]c(C(=O)COC(=O)CCC2CCCC2)c1C`, the IC50 was > 100 µM (inactive). The compound further yielded a half-inhibitory concentration (IC50) under setting [1] above 100 µM. Also, under setting [2], the 90% effect concentration (IC90) was above 100 µM. Further, under setting [3], the concentration for an effect of 90% (IC90) is above 100 µM.
On to `COc1ccc(OC)c2nc(-c3ccc4c(c3)OCO4)ccc12`, for which the IC50 was 17.7 µM. Under setting [1], this compound yielded an IC50 above 100 µM. Further, under setting [2], the IC90 is above 100 µM. This compound also returned a concentration for an effect of 90% (IC90) under setting [3] above 25 µM.
On to `CCOc1ccc(N=c2cc(-c3ccc(OC)cc3)oc3ccccc23)cc1`, for which the IC50 is 45.2 µM (inactive). The 50% inhibitory concentration (IC50) under setting [1] was 40.1 µM. This compound gave an IC90 under setting [2] of 44.4 µM. The IC90 under setting [3] turned out to be 50.3 µM.
Take `O=C(CCN1C(=O)/C(=C/c2ccccc2F)SC1=S)Nc1ccccn1`: the IC50 is > 100 µM (inactive). Moreover, the IC50 under setting [1] was above 100 µM. Besides, the 90% effect concentration (IC90) under setting [2] is above 100 µM. Also, the IC90 under setting [3] is above 100 µM.
In the case of `CSc1ccc(CCNC(=O)c2cc(C)nn2-c2ccccc2)cc1`, the IC50 was > 100 µM (inactive). Besides, the concentration for half-maximal inhibition (IC50) under setting [1] is above 100 µM. For the same compound, under setting [2], the IC90 is above 100 µM. For the same compound, the IC90 under setting [3] was above 100 µM.
With `O=C(OC(C(=O)Nc1ccc(Cl)cc1C(F)(F)F)c1ccccc1)C1=COCCO1` (stereo not given), the IC50 is 1.23 µM. Under setting [1], this compound displayed an IC50 above 100 µM. This compound had a 90% effect concentration (IC90) under setting [2] above 100 µM. The IC90 under setting [3] is above 100 µM.
`CN(C)S(=O)(=O)Oc1ccsc1C(=O)Nc1ccc(C(F)(F)F)cc1`: the IC50 was > 100 µM (inactive). The 50% inhibitory concentration (IC50) under setting [1] is above 100 µM. Besides, the 90% effect concentration (IC90) under setting [2] is above 100 µM. This compound yielded a concentration for an effect of 90% (IC90) under setting [3] above 100 µM.
